Assays:
Experiment in all cases: relative viability (nuclei count vs DMSO), 5 days (fraction); higher = more cells survive
ABC-1 = test system: ABC-1
How it was run: (§1)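 A single step with final 0.05% Triton X-100, 1% formaldehyde and 1 ug/ml Hoechst fixed the cells and stained nuclei 5 days after treatment. Lung cancer cell lines in 1536-well plates had been treated by pin tool the day after seeding with one drug alone or a fixed anchor-drug dose plus five library-drug doses (not always all listed) in √10 steps, and nuclei were counted on 4× images. Relative viability is the ratio of nuclei in treated wells to nuclei in vehicle wells, taken as the median of duplicate plates.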

BEN = test system: BEN
How it was run: as §1

EPLC-272H = test system: EPLC-272H
How it was run: as §1

HCC-827 = test system: HCC-827
How it was run: as §1

HOP-62 = test system: HOP-62
How it was run: as §1

LU99A = test system: LU99A
How it was run: as §1

NCI-H1355 = test system: NCI-H1355
How it was run: as §1

NCI-H1666 = test system: NCI-H1666
How it was run: as §1

NCI-H1792 = test system: NCI-H1792
How it was run: as §1

NCI-H1975 = test system: NCI-H1975
How it was run: as §1

NCI-H2170 = test system: NCI-H2170
How it was run: as §1

NCI-H23 = test system: NCI-H23
How it was run: as §1

NCI-H2405 = test system: NCI-H2405
How it was run: as §1

NCI-H3122 = test system: NCI-H3122
How it was run: as §1

NCI-H322M = test system: NCI-H322M
How it was run: as §1

NCI-H358 = test system: NCI-H358
How it was run: as §1

NCI-H520 = test system: NCI-H520
How it was run: as §1

NCI-H596 = test system: NCI-H596
How it was run: as §1

NCI-H647 = test system: NCI-H647
How it was run: as §1

NCI-H727 = test system: NCI-H727
How it was run: as §1

NCI-H838 = test system: NCI-H838
How it was run: as §1

PC-14 = test system: PC-14
How it was run: as §1

UMC-11 = test system: UMC-11
How it was run: as §1

O=C(O)CCCCC(CCSCc1ccccc1)SCc1ccccc1 (centres undefined) [CPI-613] + COc1cccc2cc(-c3nc([C@H]4CC[C@H](C(=O)O)CC4)n4ncnc(N)c34)[nH]c12 [OSI-027] (partner 0.5 µM)
relative viability (ABC-1; first compound 5 µM): 0.404
relative viability (ABC-1; first compound 15.81 µM): 0.443
relative viability (ABC-1; first compound 50 µM): 0.49
relative viability (ABC-1; first compound 158.11 µM): 0.175
relative viability (ABC-1; first compound 500 µM): 0.167
relative viability (BEN; first compound 5 µM): 0.289
relative viability (BEN; first compound 15.81 µM): 0.298
relative viability (BEN; first compound 50 µM): 0.304
relative viability (BEN; first compound 158.11 µM): 0.265
relative viability (BEN; first compound 500 µM): 0.28
relative viability (EPLC-272H; first compound 5 µM): 0.279
relative viability (EPLC-272H; first compound 15.81 µM): 0.307
relative viability (EPLC-272H; first compound 50 µM): 0.263
relative viability (EPLC-272H; first compound 158.11 µM): 0.261
relative viability (EPLC-272H; first compound 500 µM): 0.0195
relative viability (HCC-827; first compound 5 µM): 0.745
relative viability (HCC-827; first compound 15.81 µM): 0.717
relative viability (HCC-827; first compound 50 µM): 0.673
relative viability (HCC-827; first compound 158.11 µM): 0.431
relative viability (HCC-827; first compound 500 µM): 0.48
relative viability (HOP-62; first compound 5 µM): 0.74
relative viability (HOP-62; first compound 15.81 µM): 0.759
relative viability (HOP-62; first compound 50 µM): 0.799
relative viability (HOP-62; first compound 158.11 µM): 0.477
relative viability (HOP-62; first compound 500 µM): 0.301
relative viability (LU99A; first compound 5 µM): 0.29
relative viability (LU99A; first compound 15.81 µM): 0.279
relative viability (LU99A; first compound 50 µM): 0.262
relative viability (LU99A; first compound 158.11 µM): 0.24
relative viability (LU99A; first compound 500 µM): 0.0972
relative viability (NCI-H1355; first compound 5 µM): 0.388
relative viability (NCI-H1355; first compound 15.81 µM): 0.347
relative viability (NCI-H1355; first compound 50 µM): 0.345
relative viability (NCI-H1355; first compound 158.11 µM): 0.29
relative viability (NCI-H1355; first compound 500 µM): 0.0712
relative viability (NCI-H1666; first compound 5 µM): 0.866
relative viability (NCI-H1666; first compound 15.81 µM): 0.856
relative viability (NCI-H1666; first compound 50 µM): 0.798
relative viability (NCI-H1666; first compound 158.11 µM): 0.281
relative viability (NCI-H1666; first compound 500 µM): 0.151
relative viability (NCI-H1792; first compound 5 µM): 0.653
relative viability (NCI-H1792; first compound 15.81 µM): 0.65
relative viability (NCI-H1792; first compound 50 µM): 0.693
relative viability (NCI-H1792; first compound 158.11 µM): 0.666
relative viability (NCI-H1792; first compound 500 µM): 0.614
relative viability (NCI-H1975; first compound 5 µM): 0.693
relative viability (NCI-H1975; first compound 15.81 µM): 0.589
relative viability (NCI-H1975; first compound 50 µM): 0.741
relative viability (NCI-H1975; first compound 158.11 µM): 0.245
relative viability (NCI-H1975; first compound 500 µM): 0.0526
relative viability (NCI-H2170; first compound 5 µM): 0.718
relative viability (NCI-H2170; first compound 15.81 µM): 0.715
relative viability (NCI-H2170; first compound 50 µM): 0.662
relative viability (NCI-H2170; first compound 158.11 µM): 0.482
relative viability (NCI-H2170; first compound 500 µM): 0.101
relative viability (NCI-H23; first compound 5 µM): 0.651
relative viability (NCI-H23; first compound 15.81 µM): 0.531
relative viability (NCI-H23; first compound 50 µM): 0.62
relative viability (NCI-H23; first compound 158.11 µM): 0.263
relative viability (NCI-H23; first compound 500 µM): 0.0292
relative viability (NCI-H2405; first compound 5 µM): 0.638
relative viability (NCI-H2405; first compound 15.81 µM): 0.582
relative viability (NCI-H2405; first compound 50 µM): 0.588
relative viability (NCI-H2405; first compound 158.11 µM): 0.533
relative viability (NCI-H2405; first compound 500 µM): 0.513
relative viability (NCI-H3122; first compound 5 µM): 0.9
relative viability (NCI-H3122; first compound 15.81 µM): 0.876
relative viability (NCI-H3122; first compound 50 µM): 0.7
relative viability (NCI-H3122; first compound 158.11 µM): 0.39
relative viability (NCI-H3122; first compound 500 µM): 0.045
relative viability (NCI-H322M; first compound 5 µM): 0.511
relative viability (NCI-H322M; first compound 15.81 µM): 0.422
relative viability (NCI-H322M; first compound 50 µM): 0.515
relative viability (NCI-H322M; first compound 158.11 µM): 0.336
relative viability (NCI-H322M; first compound 500 µM): 0.0015
relative viability (NCI-H358; first compound 15.81 µM): 0.655
relative viability (NCI-H358; first compound 50 µM): 0.639
relative viability (NCI-H358; first compound 158.11 µM): 0.303
relative viability (NCI-H358; first compound 500 µM): 0.0233
relative viability (NCI-H520; first compound 5 µM): 0.268
relative viability (NCI-H520; first compound 15.81 µM): 0.243
relative viability (NCI-H520; first compound 50 µM): 0.208
relative viability (NCI-H520; first compound 158.11 µM): 0.179
relative viability (NCI-H520; first compound 500 µM): 0.141
relative viability (NCI-H596; first compound 5 µM): 0.673
relative viability (NCI-H596; first compound 15.81 µM): 0.623
relative viability (NCI-H596; first compound 50 µM): 0.832
relative viability (NCI-H596; first compound 158.11 µM): 0.489
relative viability (NCI-H596; first compound 500 µM): 0.0755
relative viability (NCI-H647; first compound 5 µM): 0.667
relative viability (NCI-H647; first compound 15.81 µM): 0.498
relative viability (NCI-H647; first compound 50 µM): 0.445
relative viability (NCI-H647; first compound 158.11 µM): 0.147
relative viability (NCI-H647; first compound 500 µM): 0.0299
relative viability (NCI-H727; first compound 5 µM): 0.554
relative viability (NCI-H727; first compound 15.81 µM): 0.624
relative viability (NCI-H727; first compound 50 µM): 0.461
relative viability (NCI-H727; first compound 158.11 µM): 0.339
relative viability (NCI-H727; first compound 500 µM): 0.334
relative viability (NCI-H838; first compound 5 µM): 0.354
relative viability (NCI-H838; first compound 15.81 µM): 0.335
relative viability (NCI-H838; first compound 50 µM): 0.301
relative viability (NCI-H838; first compound 158.11 µM): 0.235
relative viability (NCI-H838; first compound 500 µM): 0.0809
relative viability (PC-14; first compound 5 µM): 0.736
relative viability (PC-14; first compound 15.81 µM): 0.756
relative viability (PC-14; first compound 50 µM): 0.702
relative viability (PC-14; first compound 158.11 µM): 0.0567
relative viability (PC-14; first compound 500 µM): 0.0096
relative viability (UMC-11; first compound 5 µM): 0.407
relative viability (UMC-11; first compound 15.81 µM): 0.369
relative viability (UMC-11; first compound 50 µM): 0.426
relative viability (UMC-11; first compound 158.11 µM): 0.124
relative viability (UMC-11; first compound 500 µM): 0.118
